From patent US20220370471A1, “COMPOSITION AND METHOD FOR TREATMENT OF HIPPOCAMPAL SYNAPSE DYSFUNCTION AND COGNITIVE DEFICITS IN ALZHEIMER'S DISEASE” (BOARD OF REGENTS, THE UNIVERSITY OF TEXAS SYSTEM, priority 2019, published 2022)

Columns and labels:
[1] = biological target: T1, Ghsr1α (Mus musculus, UniProt Q99P50, INS247CCPGCC); assay: FlAsH-based FRET assay of Ghsr1α activity in HEK 293T cells; assay type: cell-based; conditions: 50 μM; Ghsr1α FlAsH/ECFP-expressing HEK 293T cells
T1 construct: Mouse full length Ghsr1α cDNA (NCBI Gene ID: 208188) was purchased from OriGene (MR226073); expressed in transfected cells; host or cells: HEK 293T
T1 sequence (Q99P50 with tags, fused parts or gaps INS247CCPGCC): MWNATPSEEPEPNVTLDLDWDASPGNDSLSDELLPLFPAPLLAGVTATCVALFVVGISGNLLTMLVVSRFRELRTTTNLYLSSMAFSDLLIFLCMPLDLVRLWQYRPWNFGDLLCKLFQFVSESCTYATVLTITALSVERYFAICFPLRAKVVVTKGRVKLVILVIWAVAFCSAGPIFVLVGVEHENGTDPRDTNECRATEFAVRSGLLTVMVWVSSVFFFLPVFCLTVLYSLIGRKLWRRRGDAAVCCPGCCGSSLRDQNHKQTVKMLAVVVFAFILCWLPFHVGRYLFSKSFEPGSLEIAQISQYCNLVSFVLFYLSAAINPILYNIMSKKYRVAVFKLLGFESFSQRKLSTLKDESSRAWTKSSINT
Text: FlAsH-based FRET was created by structural dynamics of Ghsr1α with FlAsH in the intercellular loop 3 and enhanced cyan fluorescent protein (ECFP) in the C-terminus (Ghsr1α^FlAsH/ECFP).
FlAsH-based FRET. […] The CCPGCC motif which has higher binding affinity for FlAsH was inserted in the third intracellular loop between Va1247 and Gly248 of Ghsr1α cDNA or between Thr245 and Gly246 of Drd1 cDNA. […] Fluorescence signals were monitored on microplate reader (BioTek Cytation 5) before and after the treatments. […] Area scanning read mode was used to correct artificial inaccuracies. The FRET ratio (FFlAsH/FECFP) was calculated according to equation as previously reported (69):
The terms a and b are correction factors for the two leakages mentioned above. a is the ratio of the direct emission of donor, ECFP at 535 nm, to its emission at 475 nm when excited at 425 nm which was calculated with cells transfected with pcDNA3-Ghsr1α^FlAsH/ECFP or pcDNA3-Drd1^FlAsH/ECFP only. b is the ratio of the direct emission of FlAsH at 535 nm when excited at 425 nm to its emission at 535 nm when excited at 500 nm which was calculated with FlAsH labeled untransfected cells.

[2] = biological target: T2, Ghsr1α/Drd1 complex (Mus musculus, UniProt Q61616+Q99P50); assay: Duolink PLA of Ghsr1α/Drd1 complex in cultured hippocampal neurons; assay type: cell-based; conditions: oligomeric Aβ42 1 μM, 24 hours; 1.5 μM MK0677, 2 μM SKF81297, or in combination
T2 construct: endogenous in cells; host or cells: primary mouse hippocampal neurons (P0-1, DIV14)
T2 sequence (Q99P50 whole entry): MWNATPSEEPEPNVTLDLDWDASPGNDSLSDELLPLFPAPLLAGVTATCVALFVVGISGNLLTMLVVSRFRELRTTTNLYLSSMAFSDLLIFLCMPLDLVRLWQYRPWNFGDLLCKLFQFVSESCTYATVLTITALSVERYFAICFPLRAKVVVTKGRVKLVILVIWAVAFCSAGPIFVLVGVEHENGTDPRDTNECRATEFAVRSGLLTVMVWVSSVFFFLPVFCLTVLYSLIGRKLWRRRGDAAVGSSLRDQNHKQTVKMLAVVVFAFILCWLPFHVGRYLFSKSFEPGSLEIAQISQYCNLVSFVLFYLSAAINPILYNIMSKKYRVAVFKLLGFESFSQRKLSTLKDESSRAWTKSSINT
T2 sequence (Q61616 whole entry): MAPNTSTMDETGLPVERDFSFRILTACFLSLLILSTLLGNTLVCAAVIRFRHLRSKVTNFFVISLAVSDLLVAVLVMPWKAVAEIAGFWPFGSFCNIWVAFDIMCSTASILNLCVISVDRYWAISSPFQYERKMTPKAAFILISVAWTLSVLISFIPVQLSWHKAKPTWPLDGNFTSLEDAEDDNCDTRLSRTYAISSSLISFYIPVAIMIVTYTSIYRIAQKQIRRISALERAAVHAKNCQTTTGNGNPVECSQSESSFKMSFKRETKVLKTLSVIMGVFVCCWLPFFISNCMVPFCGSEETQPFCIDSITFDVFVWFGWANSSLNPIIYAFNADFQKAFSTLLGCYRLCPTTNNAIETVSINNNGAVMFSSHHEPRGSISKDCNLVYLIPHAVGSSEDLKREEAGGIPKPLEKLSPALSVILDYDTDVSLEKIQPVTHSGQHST
Text: (§1) Duolink In Situ Proximity Ligation Assay (PLA). […] PLA analysis was referred to previous report (66 67). NIH Image J was used for PLA signal quantification.
(§2) Agonist treatment on primary cultured neurons. […] The exposure was followed by immunostaining to examine the effects of Ghsr1α/Drd1 co-activation on Aβ induced synaptic loss or Ghsr1α/Drd1, Aβ/Ghsr1α interaction as described in previous sections.

[3] = biological target: T3, Aβ/Ghsr1α complex (Mus musculus, UniProt Q99P50); assay: Duolink PLA of Aβ/Ghsr1α complex in cultured hippocampal neurons; assay type: cell-based; conditions: oligomeric Aβ42 1 μM, 24 hours; 1.5 μM MK0677, 2 μM SKF81297, or in combination
T3 construct: endogenous in cells; host or cells: primary mouse hippocampal neurons; Aβ42 peptide purchased (GenicBio, A-43-T-1000)
T3 sequence (Q99P50 whole entry): as the sequence (Q99P50 whole entry) above
T3 sequence (Q61616 whole entry, further chain): as the sequence (Q61616 whole entry) above
Text: as §1, §2

[4] = Mouse body weight during treatment; assay type: in vivo; conditions: MK0677 1.5 mg/kg, daily i.p.
Text: Agonist treatment on mice.
(§3) Mice and agonist treatment.

[5] = test system: 5×FAD mice; assay: Neurogenesis (DCX staining) in the dentate gyrus; assay type: in vivo, mouse; conditions: MK0677 1.5 mg/kg, daily i.p., one month
Procedure: Immunocytochemistry. […] NIS element software was used for image analysis. “Objective Count” dialog was used for intensity measurement. […] The overlapped dots represent synapses.
Neurogenesis analysis. Neurogenesis in the hippocampal dentate gyms (DG) area was presented by performing doublecortin (DCX) staining in fixed brain slices as previously described. DCX-positive (DCX^+) cell number was counted manually. The DG area was measured using NIS element software. DCX cell density was calculated by dividing the DCX cell number by the DG area to evaluate neurogenesis.

[6] = test system: 5×FAD mice; assay: Survival of mice under daily MK0677 i.p. injection; assay type: in vivo, mouse; conditions: 30 days
Procedure: To determine whether MK0677 mitigates hippocampal lesions in 5×FAD mice, the inventor first sought to determine the optimal dose of MK0677. 5×FAD mice at 3 months old received either saline or MK0677 at 1.5 or 3 mg/kg via daily i.p. injection for 30 days (FIGS. 12a). 5×FAD mice at 3 months old have little to no hippocampal lesions and indiscernible behavioral change, both of which become prominent at 4 months of age (the endpoint of treatment). The doses of MK0677 were chosen based on previous studies. […] The inventor therefore selected 5×FAD mice that received the 1.5 mg/kg dose of MK0677 for biological response assays. Next, he examined the impact of MK0677 treatment on hippocampal Aβ deposition in 5×FAD mice. To this end, immunofluorescent staining using the specific antibody against Aβ was performed to visualize Aβ plaques.
as §3

[7] = test system: 5×FAD mice; assay: Amyloid plaque deposition analysis (hippocampus and cortex); assay type: in vivo, mouse
Procedure: Immunocytochemistry. Frozen sections were prepared as previously described. […] Nuclei were labeled with 4′,6-diamidino-2-phenylindole (DAPI, Thermo Fisher Scientific, #R37606, 1 drop/500 ul) as needed. Images were collected on a Nikon confocal microscope. Amyloid plaque deposition analysis. For amyloid plaque deposition analysis, amyloid plaque channel was subjected to “Binary” then “Define Threshold” in NIS element software. The threshold was set to include all the positive staining and the same setting was applied to all images. Volume measurement was then performed for all the plaques as well as each single plaque in both the hippocampal and cortical areas using the ROI selection option. Amyloid plaque-occupied percentage in the hippocampus or cortex and the average individual plaque volume was used to compare amyloid plaque deposition between 5×FAD saline and MK0677 treatment groups.

[8] = test system: 5×FAD mice; assay: Microglia density, morphology and plaque-associated microglia analysis; assay type: in vivo, mouse
Procedure: Immunocytochemistry. Frozen sections were prepared as previously described. […] Nuclei were labeled with 4′,6-diamidino-2-phenylindole (DAPI, Thermo Fisher Scientific, #R37606, 1 drop/500 ul) as needed. Images were collected on a Nikon confocal microscope. Microglia morphology and plaque-associated microglia density analysis. Analysis of microglia morphology was done by producing three-dimensional (3D) reconstructions of cells using Imaris software (Bitplane, Imaris×64 9.0.2)[49]. Using the Filament algorithm, the software was able to calculate the length of each cell dendrite and number of branch points. This was done by first selecting the appropriate region of interest for the desired cell. If there were nearby cells, the somas of those cells were included in the region of interest. Since the software builds the dendrites based on extension from the largest set diameter, doing this can prevent unwanted filaments bridging the dendrites of two or more cells. The dendrite diameter parameters were set with the largest diameter being the soma size and the smallest diameter at 0.5 μm. To further prevent unwanted connections, the option to ‘Remove disconnected segments’ was used in the dendrite building menu with the distance threshold set at 5 μm. After the algorithm finished detecting the dendrites, non-specifically detected filaments were manually trimmed. Dendrite length and branch points were then calculated by the software. Plaque-associated microglia density was analyzed by using NIS element software. Microglia were counted under the following rule: if more than 50% of the microglia soma was within a plaque, it was counted as one plaque-associated microglia. Plaque volume was analyzed as described in the previous section (amyloid plaque deposition analysis).

[9] = biological target: Ghsr1α (Homo sapiens, UniProt Q92847); conditions: cited from earlier work
Ghsr1α (Homo sapiens, UniProt Q92847), sequence (Q92847 whole entry): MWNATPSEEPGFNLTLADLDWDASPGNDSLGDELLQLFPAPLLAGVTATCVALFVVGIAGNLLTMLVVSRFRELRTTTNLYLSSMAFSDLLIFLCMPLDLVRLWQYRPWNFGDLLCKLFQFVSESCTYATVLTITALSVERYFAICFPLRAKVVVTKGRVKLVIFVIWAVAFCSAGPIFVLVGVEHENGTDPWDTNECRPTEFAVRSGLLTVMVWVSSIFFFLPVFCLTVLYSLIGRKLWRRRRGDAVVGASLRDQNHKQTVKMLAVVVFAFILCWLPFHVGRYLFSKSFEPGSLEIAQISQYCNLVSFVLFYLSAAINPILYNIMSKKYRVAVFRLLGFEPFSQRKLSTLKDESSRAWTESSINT

[10] = test system: patients with AD; conditions: clinical trial; cited from earlier work
[11] = test system: 5×FAD mice; conditions: recent study, higher dose of MK0677; cited from earlier work
[12] = test system: hippocampal CA3-CA1 pathway; assay: Long-term potentiation (fEPSP) in hippocampal slices; conditions: MK0677 1.5 μM, SKF81297 2 μM, alone or in combination
Procedure: For electrophysiological experiments, mice were anesthetized with isoflurane and decapitated. […] Slices were allowed to rest for 30 minutes after being transferred to the recording chamber before recordings began. Recordings of local field potentials (LFPs) were performed on an Axon Multiclamp 700B amplifier (Molecular Devices), and data were acquired and analyzed using AxoGraph X (AxoGraph Scientific). A tungsten concentric bipolar microelectrode (World Precision Instruments), and a recording glass electrode (1.5 MS2) filled with recording ACSF, were placed approximately 200 μm apart in the Schaffer collateral-commissural pathway in the CA1 region of the hippocampus. Pulses were delivered in 30 seconds intervals. Before baseline recordings commenced, input-output curves were taken, using 25-150 μA stimulation currents in 25 μA steps. Three sweeps were sampled at each stimulation intensity and averaged to represent the voltage response at each step. Recordings of baseline responses lasted for at least 40 minutes. Stimulation intensity was set to approximately 40% of the minimum intensity required to evoke the maximum response (based on the input-output curve). The stimulation intensity was kept consistent throughout the duration of the experiment. […] LTP was induced using a theta burst stimulation (TBS) protocol consisting of 10 bursts (5 pulses at 100 Hz) repeated at 5 Hz delivered two times 30 seconds apart. After LTP induction, LFPs were recorded for an additional 60 minutes. The slope of the field excitatory postsynaptic potential (fEPSP) was measured in Axograph scientific software and sweeps were averaged in bins of 5 for both the baseline and post LTP induction periods. Changes in LFPs are expressed as percentage change from the averaged baseline values.

[13] = MK0677 1.5 mg/kg, daily i.p., one month
[14] = saline- vs MK0677-treated 5×FAD mice

Structure (SMILES): CC(C)(N)C(=O)N[C@H](COCc1ccccc1)C(=O)N1CCC2(CC1)CN(S(C)(=O)=O)c1ccccc12 [MK0677]
- FRET ratio (FFlAsH/FECFP), agonist-induced Ghsr1α activation [1]: induced a decrease in FRET ratio
- Ghsr1α/Drd1 complex formation [2]: not the agonists alone
- Aβ/Ghsr1α complex formation [3]: not MK0677 or SKF81297 alone
- mouse body weight [4]: did not affect mouse body weight
- DCX+ cells, non-TG saline vs non-TG MK0677 [5]: no significant difference
- DCX-positive cells in dentate gyri, 5×FAD mice [5]: remarkably augmented number of DCX-positive cells
- DCX-positive cells, Ghsr null mice [5]: no response
- 5×FAD mouse survival vs saline ([6]; MK0677 1.5 mg/kg): little effect
- mortality of 5×FAD mice ([6]; MK0677 3 mg/kg): significantly increased the mortality
- size of each single Aβ plaque, hippocampus ([7]; 5×FAD mice, MK0677 1.5 mg/kg, daily i.p., 30 days): did not significantly alter
- single plaque size, neocortex ([7]; MK0677-treated 5×FAD mice): failed to show any influence
- total plaque-occupied volume, neocortex ([7]; MK0677-treated 5×FAD mice): failed to show any influence
- increased microglial density in the hippocampus, 5×FAD mice [8, 13]: not prevented
- microglia density, non-TG saline vs MK0677 [8, 13]: no significant difference
- density of plaque-associated microglia, neocortex ([8]; MK0677-treated 5×FAD mice): failed to show any influence
- density of total microglia, neocortex ([8]; MK0677-treated 5×FAD mice): failed to show any influence
- density of plaque-associated microglia, hippocampus [8, 14]: no significant difference
- microglia length of total process [8, 14]: no significant difference
- microglia number of branch points [8, 14]: no significant difference
- potency relative to ghrelin [9]: higher potency than ghrelin
- clinical benefits in patients with AD [10]: failed to show clinical benefits
- neocortical Aβ plaques in young 5×FAD mice [11]: lowered neocortical Aβ plaques
- stimulus-evoked hippocampal LTP in 5×FAD slices ([12]; slices from 4 month-old 5×FAD mice): no effect
- hippocampal LTP in non-Tg slices ([12]; slices from 4 month-old non-Tg mice): no effect
